No end group written: not given here.
Assays:
[1] = test system: Tg-SwDI mouse model of AD and cerebral amyloid angiopathy (CAA); test: Cerebral microbleeds (ARIA-H) in Tg-SwDI mice given PNA5 with or without anti-Aβ antibody; assay type: in vivo; details: Tg-SwDI mice aged 12-13 months; PNA5 30 μL, with PBS or anti-Aβ antibody 3 mg/kg; 2 months; tissue analysis (FIGS. 1A and 1B)
Experimental: The effect the Ang-(1-7) oligopeptide PNA5 had on cerebral microbleeds (ARIA-H) in a mouse model of AD and cerebral amyloid angiopathy (CAA) was studied.
Tg-SwDI mice aged 12-13 months were administered: (1) the PNA5 vehicle, without PNA5, and PBS, (2) vehicle and an anti-Aβ antibody, (3) PNA5 and PBS, or (4) PNA5 and an anti-Aβ antibody. The anti-AB antibody therapy (IgG) was administered in an amount of 3 mg/kg. The PNA5 was administered in an amount of 30 μL. For groups receiving the PNA5 alone (Group 3), the compounds were administered for […] which point they were administered a […] (NOR) test and Nest building test (FIG. 2) prior to euthanasia and collection of the tissue for analysis of the microbleeds (FIGS. 1A and 1B). For groups receiving the anti-AB antibody and PNA5 (Group 4), the compounds were administered for 2 months at which point they were administered a […] (NOR) test and Nest building test prior (FIG. 2) to euthanasia and collection of the tissue for analysis of the microbleeds (FIGS. 1A and 1B).

[2] = FDA-approved food additive; cited from earlier work

Compound | cerebral microbleeds (ARIA-H) [1] | safe human daily intake [2]
PNA5: Ang-(1-7) derivative Asp Arg Val Tyr Ile His Ser* (glycosylated serine), carboxyl terminal end NH2 (DRVYIHS-NH2; not fully specified (residue 7); also: glycan on Ser7 not given here) | decreased | 
CC(=O)OC[C@H]1O[C@H](O[C@]2(COC(C)=O)O[C@H](COC(=O)C(C)C)[C@@H](OC(=O)C(C)C)[C@@H]2OC(=O)C(C)C)[C@H](OC(=O)C(C)C)[C@@H](OC(=O)C(C)C)[C@@H]1OC(=O)C(C)C [SAIB, sucrose acetoisobutyrate] |  | up to 20 mg/kg

— patent US20250177476A1, “ANG-(1-7) OLIGOPEPTIDE DERIVATIVES FOR USE IN MITIGATING AMYLOID-RELATED IMAGING ABNORMALITIES” (ProNeurogen, Inc., priority 2023, published 2025)
